# From US6723732B1, “Percutaneously adminstrable preparations containing cerebral function activators” (Shionogi & Co., Ltd., priority 1998, dated 2004)
# Where two headings read alike, the source gives them in different places.
# Key:
# [1] = Percutaneous administration to anesthetized rats (glass cell on abdominal skin), plasma concentration by HPLC and residual drug recovery; format: in vivo, rat (Jcl SD strain); details: for MRT / AUC / Cmax / Tmax: Jcl SD, rat, plasma, topical or ocular, N=3
# Procedure: (I) A base was composed of 2.5% 1-menthol/20% ethanol/77.5% distilled water. The phosphate salt of Compound (I-1) as an active ingredient was dissolved or dispersed in it at concentrations of 1.4, 5.6, and 11.2 mg/mL. (II) To Non-fasting rats (Jcl SD strain rat, 9-10 weeks old) was injected 20% urethane solution subcutaneously (0.65 mL/100 g BW). After the anesthetic condition of the rat became stable, abdominal hair was removed using a hair clipper and shaver, then the rats were kept on a hotplate at 36° C. A glass cell (35 mm I.D. with a ground stopper) was attached using Aron alpha (trademark) in an abdominal region of the rat and absorbent gauze (about two sheets) was placed in the cell, then 0.5 mL of the above obtained pharmaceutical preparations of the invention was administrated to the cell (2, 8 or 16 mg/kg, N=3). (III) The time of blood collection: 0, 1, 2, 3, 4, 6, and 8 hr after the administration (IV) After the blood collection at 8 hrs, the residual drug in pharmaceutical preparations of the present invention in the cell was recovered by the addition of 50 mL of methanol. The percent of apparent absorption was calculated by the difference between the initial dose and the recovered amount at 8 hrs. AUC and MRT were calculated from plasma concentration profiles measured by HPLC. Furthermore, the skin to which the applied pharmaceutical preparations were applied and their subcutaneous part were removed and macroscopically checked after the experiments. A phosphate buffer of pH 9 was prepared from 1/15 mole of dibasic sodium phosphate dissolved in […] of distilled water. The phosphate buffers of pH 4 and pH 7 were prepared by the addition of phosphoric acid to the pH 9 buffer. A bBase was composed of 3% 1-menthol/30% ethanol/67% phosphate buffer. The phosphate salt of Compound (I-1) as an active ingredient was dissolved or dispersed in the base at a concentration of 5.6 mg/mL. Other conditions were the same as that of Experiment 1 (N=3). Results are represented in Table 2 and FIG. 2. The phosphate salt of Compound (I-1) as an active ingredient was dissolved or dispersed in bases in Table 3 at a concentration of 5.6 mg/mL. Other condition were the same as that of the Experiment 1. The 3% 1-menthol/30% ethanol/67% pH 4 phosphate buffer was selected as an aqueous base. The 2.5% 1-menthol/20% ethanol/77.5% isopropyl myristate was selected as an oily base. The phosphate salt of Compound (I-1) as an active ingredient was dissolved or dispersed in the aqueous or oily formulation at a concentration of 5.6 mg/mL. Other conditions were the same as that of Experiment 1 (N=3).
# acetylcholine release = assay: Acetylcholine release in frontal cortex dialysate (microdialysis) after percutaneous administration; format: in vivo, rat (Jcl Wistar strain male); details: 2, 4 and 8 mg/kg percutaneous, aqueous basic formulation 5.6 mg/mL; values only in FIG. 5 and 6
# Procedure: The day before experiment, a dialysis probe of 2 mm membrane length was inserted into frontal cortex of non-fasting rats (Jcl Wistar strain male rat 9-11 W). On the day of experiment, abdominal region hair was removed using a hair clipper and shaver under 2% halothane anesthesia. The aqueous basic formulation containing 5.6 mg/mL of Compound (I-1) was administered at a volume of 0.125, 0.25 and 0.5 mL to the rayon cloths which area were 2.5, 5, and 10 cm^2, respectively (Dose: 2, 4 and 8 mg/kg). Then the rayon cloths were placed on the abdominal region by support tape and covered with gum tape. After the administration, acetylcholine concentration in dialysate was measured every 30 min. FIG. 5 indicates a time-course of acetylcholine release after the administration of Compound (I-1). The plot data express the percent of control and the control level was monitored before the administration of Compound (I-1) in the same rat. The AUC values were calculated for 4 hrs of acetylcholine release as the percent of control in FIG. 6.
# [2] = Percutaneous administration by strapping technique to conscious rats (rayon cloth on abdominal region), plasma concentration by HPLC; format: in vivo, rat (Jcl Wistar strain male); details: for BA: absolute bioavailability, AUC percutaneous divided by AUC intravenous; for Percent of apparent absorption: residual drug in rayon cloth recovered at 24 hr; for Cmax / Tmax / AUC(0-t): male, Jcl Wistar, rat, plasma, topical or ocular, conscious rats; for Cmax: aqueous base 3% 1-menthol/30% ethanol/67% pH 4 phosphate buffer, 5.6 mg/mL; for Tmax / AUC(0-t): aqueous base pH 4, 5.6 mg/mL; for AUC(0-t): read-out: AUC 0-360 min (converted)
# Procedure: The experiment was performed by the strapping technique under the conscious condition. Non-fasting rats (Jcl Wistar strain male rat 9-11 W) were cannulated in the jugular vein two days before the percutaneous administration experiment. On the day of experiment, abdominal region hair of rats were removed using a hair clipper and shaver under ether anesthesia. Three different volumes (0.125, 0.25, and 0.5 mL) of the aqueous basic formulation (3% 1-menthol/30% ethanol/67% pH 4 phosphate buffer) containing 5.6 mg/mL of Compound (I-1) were administered (2, 4, and 8 mg/kg) on the rayon cloths, which area were 2.5, 5, and 10 cm^2, respectively, supported by tape on the abdominal region then covered with gum tape. Blood samples were collected from the jugular vein of the rats in a cage, at the time of 0, 0.5, 1, 2, 3, 4, 6, 8, and 10 hr. Plasma concentrations were measured by HPLC. The rayon cloths were recovered at 24 hr after the administration and the residual drug was extracted by 30 mL of methanol in a 50 mL centrifuge tube and measured its concentration by HPLC. The percent of apparent absorption was calculated and the absolute bioavailability was calculated from the AUC of percutaneous administration divided by the AUC of intravenous administration.
# skin = assay: Macroscopic check of the applied skin and subcutaneous part after the experiment (irritation); format: in vivo, rat (Jcl SD strain)
# Procedure: (IV) After the blood collection at 8 hrs, the residual drug in pharmaceutical preparations of the present invention in the cell was recovered by the addition of 50 mL of methanol. The percent of apparent absorption was calculated by the difference between the initial dose and the recovered amount at 8 hrs. AUC and MRT were calculated from plasma concentration profiles measured by HPLC. Furthermore, the skin to which the applied pharmaceutical preparations were applied and their subcutaneous part were removed and macroscopically checked after the experiments.
# [3] = 8 mg/kg, pH 4, aqueous base 3% 1-menthol/30% ethanol/67% pH 4 phosphate buffer, phosphate salt 5.6 mg/mL
# [4] = 8 mg/kg, pH 4, base pH 4: 3% 1-menthol/30% ethanol/67% phosphate buffer, phosphate salt 5.6 mg/mL
# [5] = 8 mg/kg, pH 7, base pH 7: 3% 1-menthol/30% ethanol/67% phosphate buffer, phosphate salt 5.6 mg/mL
# [6] = 8 mg/kg, aqueous base 3% 1-menthol/30% ethanol/67% pH 4 phosphate buffer, phosphate salt 5.6 mg/mL
# [7] = 8 mg/kg, oily base 2.5% 1-menthol/20% ethanol/77.5% isopropyl myristate, phosphate salt 5.6 mg/mL
smiles,measurement,setting,value
"c1cc(-c2nc3c4c(ncc3[nH]2)CCOC4)no1 [Compound (I-1), 2-(3-isoxazolyl)-3,6,7,9-tetrahydroimidazo[4,5-d]pyrano[4,3-b]pyridine]",Percent of apparent absorption,"[1]; 2 mg/kg percutaneous, phosphate salt in 2.5% 1-menthol/20% ethanol/77.5% distilled water, initial dose minus recovered amount at 8 hrs",71.3%
same,Percent of apparent absorption,"[1]; 8 mg/kg percutaneous, phosphate salt in 2.5% 1-menthol/20% ethanol/77.5% distilled water, initial dose minus recovered amount at 8 hrs",81.0%
same,Percent of apparent absorption,"[1]; 16 mg/kg percutaneous, phosphate salt in 2.5% 1-menthol/20% ethanol/77.5% distilled water, initial dose minus recovered amount at 8 hrs",35.8%
same,MRT,"[1]; 2 mg/kg, 2 mg/kg percutaneous, phosphate salt 1.4 mg/mL in 2.5% 1-menthol/20% ethanol/77.5% distilled water",3.4 ± 0.6 h
same,AUC,"[1]; 2 mg/kg, 2 mg/kg percutaneous, phosphate salt 1.4 mg/mL in 2.5% 1-menthol/20% ethanol/77.5% distilled water, blood to 8 hr",0.49 ± 0.5 µg·h/mL
same,MRT,"[1]; 8 mg/kg, 8 mg/kg percutaneous, phosphate salt 5.6 mg/mL in 2.5% 1-menthol/20% ethanol/77.5% distilled water",3.6 ± 0.2 h
same,AUC,"[1]; 8 mg/kg, 8 mg/kg percutaneous, phosphate salt 5.6 mg/mL in 2.5% 1-menthol/20% ethanol/77.5% distilled water, blood to 8 hr",0.72 ± 0.05 µg·h/mL
same,AUC,[1]; [3],1.61 ± 0.3 µg·h/mL
same,MRT,[1]; [3],2.2 ± 0.5 h
same,AUC,[1]; [4],1.81 ± 0.3 µg·h/mL
same,MRT,[1]; [4],3 ± 0.2 h
same,AUC,[1]; [5],0.38 ± 0.18 µg·h/mL
same,MRT,[1]; [5],3.4 ± 0.3 h
same,Cmax,[1]; [6],0.69 ± 0.13 µg/mL
same,Tmax,[1]; [6],1.3 ± 0.6 h
same,AUC,[1]; [7],0.47 ± 0.1 µg·h/mL
same,Cmax,[1]; [7],0.16 ± 0.01 µg/mL
same,MRT,[1]; [7],2.6 ± 0.6 h
same,Tmax,[1]; [7],1 h
same,MRT,"[1]; 16 mg/kg, 16 mg/kg percutaneous, phosphate salt 11.2 mg/mL in 2.5% 1-menthol/20% ethanol/77.5% distilled water",4 ± 0.7 h
same,AUC,"[1]; 16 mg/kg, 16 mg/kg percutaneous, phosphate salt 11.2 mg/mL in 2.5% 1-menthol/20% ethanol/77.5% distilled water, blood to 8 hr",0.46 ± 0.18 µg·h/mL
same,Percent of apparent absorption,"[1]; base 2.5% I-menthol, 20% ethanol, 77.5% isopropyl myristate, phosphate salt 5.6 mg/mL",28.1%
same,Percent of apparent absorption,"[1]; base pH 4: 3% 1-menthol/30% ethanol/67% phosphate buffer, phosphate salt 5.6 mg/mL",66.8%
same,Percent of apparent absorption,"[1]; base pH 7: 3% 1-menthol/30% ethanol/67% phosphate buffer, phosphate salt 5.6 mg/mL",22.6%
same,Percent of apparent absorption,"[1]; reference example base 5% N-methyl pyrrolidone, 5% ethanol, 90% isopropyl myristate, phosphate salt 5.6 mg/mL",17.4%
same,Percent of apparent absorption,"[1]; reference example base 5% ethanol, 95% isopropyl myristate, phosphate salt 5.6 mg/mL",13.0%
same,Percent of apparent absorption,"[1]; reference example base 5% lactic acid, 5% ethanol, 90% isopropyl myristate, phosphate salt 5.6 mg/mL",11.9%
same,concentrations of Compound (I-1) in all plasma samples,"[1]; reference example bases of Table 3, under the limit of detection",< 0.05 µg/mL
same,"acetylcholine release in frontal cortex dialysate (percent of control, time-course and AUC for 4 hrs)",acetylcholine release,prolonged pharmacological effect
same,BA,[2]; 2 mg/kg percutaneous,30.92 ± 2.59%
same,Percent of apparent absorption,[2]; 2 mg/kg percutaneous,63.9%
same,BA,[2]; 4 mg/kg percutaneous,17.86 ± 6.40%
same,Percent of apparent absorption,[2]; 4 mg/kg percutaneous,52.8%
same,BA,[2]; 8 mg/kg percutaneous,22.68 ± 9.47%
same,Percent of apparent absorption,[2]; 8 mg/kg percutaneous,60.0%
same,Cmax,"[2]; 2 mg/kg percutaneous (0.125 mL, 2.5 cm^2)",0.14 ± 0.03 µg/mL
same,Tmax,[2]; 2 mg/kg percutaneous,1.25 h
same,AUC(0-t),[2]; 2 mg/kg percutaneous,0.375 µg·h/mL
same,Cmax,"[2]; 4 mg/kg percutaneous (0.25 mL, 5 cm^2)",0.17 ± 0.06 µg/mL
same,Tmax,[2]; 4 mg/kg percutaneous,1.55 h
same,AUC(0-t),[2]; 4 mg/kg percutaneous,0.408 µg·h/mL
same,Cmax,"[2]; 8 mg/kg percutaneous (0.5 mL, 10 cm^2)",0.45 ± 0.15 µg/mL
same,Tmax,[2]; 8 mg/kg percutaneous,0.85 h
same,AUC(0-t),[2]; 8 mg/kg percutaneous,1 µg·h/mL
same,skin irritation (macroscopic check),"skin; Experiment 1: all doses (2, 8, 16 mg/kg), 2.5% 1-menthol/20% ethanol/77.5% distilled water base",No irritations
same,skin irritation (macroscopic check),"skin; Experiment 2: all formulations (pH 4 and pH 7 phosphate buffer bases), 5.6 mg/mL",No irritations
